Experimental data: patent US20240209001A1, “HETEROCYCLIC DERIVATIVES AS JANUS KINASE INHIBITORS” (CHIESI FARMACEUTICI S.P. A., priority 2021, published 2024)

Columns and labels:
[1] = target: TYK2 (Homo sapiens (Human), UniProt P29597); assay: Biochemical potency on Tyk2, TR-FRET LANCE Ultra kinase assay (compounds 1-92); settings: ATP at Km, read-out: Tyk2 inhibitory activity (pIC50 class) (converted)
Method: (§1) Biochemical Potency on JAK1, JAK2, JAK3 and Tyk2 Assay Principle The objective of this study was to assess the capability of compounds to inhibit all 4 JAK isoforms activity in a cell-free environment. Assay for JAK 1, JAK 2, JAK 3 and TYK2 were performed by Time-resolved fluorescence resonance energy transfer (TR-FRET) technology. It consists in the interaction of two labelled binding partners detected by the energy transfer from an excited donor to an acceptor dye and measurement of light emission by the acceptor dye. LANCE Ultra kinase assay was used. In presence of JAK 1, JAK 2, JAK 3 and TYK2 kinases and ATP (corresponding to Km), the ULight peptide substrate (LANCE Ulight-JAK-1 ([…]) Peptide, Perkin Elmer, TRF0121) is phosphorylated. It is then captured by Eu-anti-phospho-substrate antibody (LANCE Eu-W1024 Anti-phosphotyrosine (PT66), Perkin Elmer, AD0069), which bring the Eu-chelate donor and ULight acceptor dyes into close proximity. Upon excitation at 320 nm, the Eu-chelate transfers its energy to the ULight dye, resulting in a fluorescent light emission at 665 nm. Compound Testing Serial dilutions of compounds in pure DMSO are prepared from 10 mM DMSO stock solutions. Compounds were tested in 384-well plate for 11 consecutive 5-fold dilutions starting from 20 μM highest concentration (20 μM-[…]). 200 nL of compound were transferred from mother plate to test plate by using Mosquito (TTP labtech). Assay was performed in 384-well Perkin Elmer test plate in 20 μL assay volume (kinase reaction) and 40 μL total volume (stopping reagent and antibody detection reagents). In 10 μL of substrate solution (peptide+ATP) 30/50/20/10 nM of peptide and 20/0.7/0.2/12 μM of ATP were added for JAK 1, JAK 2, JAK 3 and TYK2 respectively. 10 μL of enzyme solution was added to kinase reaction at these concentrations: 0.15/0.083/0.025/0.144 ng/μL of JAK 1, JAK 2, JAK 3 and TYK2 respectively. After shaking and 1.5 h of incubation at r.t., 20 μL of Stop (10 μL EDTA) and Detection mixture (10 μL Europium-anti-phospho antibody, final: 0.5 nM) were added. Reading was performed after 1 h of incubation on a EnVision 2104 reader (Perkin Elmer). Calculation of IC50 data, curves and QC analysis was performed by using Excel tool and GraphPadPrism software, v9. Briefly, individual concentration-effect curves are generated by plotting the logarithm of the tested concentration of tested compounds (X) vs. corresponding percent inhibition values (Y) using least squares (ordinary) fit. Best fit IC50 values are calculated using Log(inhibitor) vs. normalized response-Variable slope equation, where Y=100/(1+10^((Log IC50-X)*HillSlope)). QC criteria parameters (Z', S:B, R2, HillSlope) were checked for every IC50 curve. Calculation of IC50 data, curves and QC analysis were made using Excel tools and GraphPadPrism software. QC criteria parameters: Z'≥0.5, Hill Slope range 0.5 to 5, S:B>2.

[2] = target: JAK 3 (Homo sapiens (Human), UniProt P52333); assay: Biochemical potency on JAK3, TR-FRET LANCE Ultra kinase assay (compounds 1-92); settings: ATP at Km, read-out: JAK3 inhibitory activity (pIC50 class) (converted)
Method: as §1

[3] = target: JAK 2 (Homo sapiens (Human), UniProt O60674); assay: Biochemical potency on JAK2, TR-FRET LANCE Ultra kinase assay (compounds 1-92); settings: ATP at Km, read-out: JAK2 inhibitory activity (pIC50 class) (converted)
Method: as §1

[4] = target: JAK 1 (Homo sapiens (Human), UniProt P23458); assay: Biochemical potency on JAK1, TR-FRET LANCE Ultra kinase assay (compounds 1-92); settings: ATP at Km, read-out: JAK1 inhibitory activity (pIC50 class) (converted)
Method: as §1

JAK 3, sequence (P52333 whole entry): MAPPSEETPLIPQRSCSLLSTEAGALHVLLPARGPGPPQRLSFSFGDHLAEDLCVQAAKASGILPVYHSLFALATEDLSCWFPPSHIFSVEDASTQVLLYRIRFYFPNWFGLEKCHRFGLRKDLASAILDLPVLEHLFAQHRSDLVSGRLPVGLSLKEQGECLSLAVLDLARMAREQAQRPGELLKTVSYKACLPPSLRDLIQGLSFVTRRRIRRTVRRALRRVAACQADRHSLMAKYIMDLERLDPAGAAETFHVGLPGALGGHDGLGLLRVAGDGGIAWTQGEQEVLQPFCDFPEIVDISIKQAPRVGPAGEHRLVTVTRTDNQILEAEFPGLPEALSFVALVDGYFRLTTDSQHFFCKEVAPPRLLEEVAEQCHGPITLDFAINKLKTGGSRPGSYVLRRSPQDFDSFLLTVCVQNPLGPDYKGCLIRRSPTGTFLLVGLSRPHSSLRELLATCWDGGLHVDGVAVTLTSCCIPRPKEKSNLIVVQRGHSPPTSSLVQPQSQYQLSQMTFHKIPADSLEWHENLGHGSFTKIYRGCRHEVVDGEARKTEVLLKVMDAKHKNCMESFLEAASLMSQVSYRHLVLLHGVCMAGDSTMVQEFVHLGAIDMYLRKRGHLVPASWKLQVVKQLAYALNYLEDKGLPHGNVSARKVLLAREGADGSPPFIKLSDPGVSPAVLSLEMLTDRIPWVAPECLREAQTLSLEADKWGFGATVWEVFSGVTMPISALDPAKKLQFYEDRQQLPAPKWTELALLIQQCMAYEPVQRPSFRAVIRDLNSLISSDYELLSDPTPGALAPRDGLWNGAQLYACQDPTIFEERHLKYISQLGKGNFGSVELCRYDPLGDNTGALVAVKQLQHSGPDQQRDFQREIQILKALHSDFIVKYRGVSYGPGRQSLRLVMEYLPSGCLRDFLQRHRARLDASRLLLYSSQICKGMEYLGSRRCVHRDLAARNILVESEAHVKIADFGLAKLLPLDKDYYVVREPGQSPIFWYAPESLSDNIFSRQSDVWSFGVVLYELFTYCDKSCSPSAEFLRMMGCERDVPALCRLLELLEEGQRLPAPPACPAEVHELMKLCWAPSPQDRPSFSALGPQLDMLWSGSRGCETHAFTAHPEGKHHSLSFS
TYK2, sequence (P29597 whole entry, canonical isoform): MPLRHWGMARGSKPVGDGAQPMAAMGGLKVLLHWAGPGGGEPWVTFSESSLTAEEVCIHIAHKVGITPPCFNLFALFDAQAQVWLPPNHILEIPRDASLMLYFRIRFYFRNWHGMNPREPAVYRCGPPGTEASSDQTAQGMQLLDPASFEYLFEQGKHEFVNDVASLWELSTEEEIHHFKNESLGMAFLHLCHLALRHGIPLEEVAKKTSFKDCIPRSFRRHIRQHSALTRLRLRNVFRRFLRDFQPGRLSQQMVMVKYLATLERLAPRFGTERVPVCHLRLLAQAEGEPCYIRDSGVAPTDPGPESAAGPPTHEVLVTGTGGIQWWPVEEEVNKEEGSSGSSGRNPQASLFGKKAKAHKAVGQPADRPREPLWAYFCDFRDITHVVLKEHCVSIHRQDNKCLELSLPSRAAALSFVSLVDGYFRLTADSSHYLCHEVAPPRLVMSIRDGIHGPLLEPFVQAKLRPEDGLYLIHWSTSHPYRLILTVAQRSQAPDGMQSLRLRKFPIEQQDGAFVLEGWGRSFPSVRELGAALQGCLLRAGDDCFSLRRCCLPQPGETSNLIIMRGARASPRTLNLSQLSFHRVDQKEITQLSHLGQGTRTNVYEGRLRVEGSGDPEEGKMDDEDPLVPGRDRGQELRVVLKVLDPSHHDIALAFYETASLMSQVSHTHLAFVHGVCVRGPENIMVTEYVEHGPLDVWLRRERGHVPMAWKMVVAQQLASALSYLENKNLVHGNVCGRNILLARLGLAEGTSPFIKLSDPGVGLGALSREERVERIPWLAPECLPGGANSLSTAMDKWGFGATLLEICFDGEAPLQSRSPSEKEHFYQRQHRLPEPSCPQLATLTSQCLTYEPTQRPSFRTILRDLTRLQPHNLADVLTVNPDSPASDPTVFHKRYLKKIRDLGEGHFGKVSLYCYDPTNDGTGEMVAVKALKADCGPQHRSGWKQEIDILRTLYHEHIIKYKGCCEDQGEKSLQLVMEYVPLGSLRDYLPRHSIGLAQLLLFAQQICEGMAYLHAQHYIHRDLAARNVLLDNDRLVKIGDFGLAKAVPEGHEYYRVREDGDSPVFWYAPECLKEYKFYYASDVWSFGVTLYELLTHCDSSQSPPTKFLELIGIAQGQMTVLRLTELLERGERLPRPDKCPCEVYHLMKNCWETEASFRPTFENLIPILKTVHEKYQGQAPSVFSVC
JAK 2, sequence (O60674 whole entry): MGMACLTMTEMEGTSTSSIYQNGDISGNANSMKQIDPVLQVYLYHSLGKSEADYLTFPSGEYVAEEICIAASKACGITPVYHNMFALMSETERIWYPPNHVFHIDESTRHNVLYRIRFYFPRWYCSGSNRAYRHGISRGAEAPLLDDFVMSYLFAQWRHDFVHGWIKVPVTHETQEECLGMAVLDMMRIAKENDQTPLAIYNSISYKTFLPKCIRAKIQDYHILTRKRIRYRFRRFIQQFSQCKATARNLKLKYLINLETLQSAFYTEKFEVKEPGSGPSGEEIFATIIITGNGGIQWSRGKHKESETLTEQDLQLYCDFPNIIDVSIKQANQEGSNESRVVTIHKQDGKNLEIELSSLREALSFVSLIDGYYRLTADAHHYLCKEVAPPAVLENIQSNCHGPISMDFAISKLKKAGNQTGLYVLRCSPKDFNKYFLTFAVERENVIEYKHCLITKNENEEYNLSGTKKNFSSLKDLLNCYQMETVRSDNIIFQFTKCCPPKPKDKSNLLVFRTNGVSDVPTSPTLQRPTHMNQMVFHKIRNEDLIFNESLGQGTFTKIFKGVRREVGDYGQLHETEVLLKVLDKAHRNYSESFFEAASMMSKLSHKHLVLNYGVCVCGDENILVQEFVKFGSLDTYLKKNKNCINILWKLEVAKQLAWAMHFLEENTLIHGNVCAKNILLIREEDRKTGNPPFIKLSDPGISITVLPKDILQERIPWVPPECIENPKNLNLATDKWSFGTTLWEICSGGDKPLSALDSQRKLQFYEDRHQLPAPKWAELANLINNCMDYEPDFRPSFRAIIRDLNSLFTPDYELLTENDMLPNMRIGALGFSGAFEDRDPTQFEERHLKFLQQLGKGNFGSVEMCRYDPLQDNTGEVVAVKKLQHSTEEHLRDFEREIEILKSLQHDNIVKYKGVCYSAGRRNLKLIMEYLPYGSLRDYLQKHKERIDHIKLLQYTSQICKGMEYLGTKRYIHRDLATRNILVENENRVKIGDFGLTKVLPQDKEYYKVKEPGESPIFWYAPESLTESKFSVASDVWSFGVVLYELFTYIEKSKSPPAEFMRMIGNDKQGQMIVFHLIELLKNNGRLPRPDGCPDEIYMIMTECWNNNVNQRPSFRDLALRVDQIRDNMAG
JAK 1, sequence (P23458 whole entry): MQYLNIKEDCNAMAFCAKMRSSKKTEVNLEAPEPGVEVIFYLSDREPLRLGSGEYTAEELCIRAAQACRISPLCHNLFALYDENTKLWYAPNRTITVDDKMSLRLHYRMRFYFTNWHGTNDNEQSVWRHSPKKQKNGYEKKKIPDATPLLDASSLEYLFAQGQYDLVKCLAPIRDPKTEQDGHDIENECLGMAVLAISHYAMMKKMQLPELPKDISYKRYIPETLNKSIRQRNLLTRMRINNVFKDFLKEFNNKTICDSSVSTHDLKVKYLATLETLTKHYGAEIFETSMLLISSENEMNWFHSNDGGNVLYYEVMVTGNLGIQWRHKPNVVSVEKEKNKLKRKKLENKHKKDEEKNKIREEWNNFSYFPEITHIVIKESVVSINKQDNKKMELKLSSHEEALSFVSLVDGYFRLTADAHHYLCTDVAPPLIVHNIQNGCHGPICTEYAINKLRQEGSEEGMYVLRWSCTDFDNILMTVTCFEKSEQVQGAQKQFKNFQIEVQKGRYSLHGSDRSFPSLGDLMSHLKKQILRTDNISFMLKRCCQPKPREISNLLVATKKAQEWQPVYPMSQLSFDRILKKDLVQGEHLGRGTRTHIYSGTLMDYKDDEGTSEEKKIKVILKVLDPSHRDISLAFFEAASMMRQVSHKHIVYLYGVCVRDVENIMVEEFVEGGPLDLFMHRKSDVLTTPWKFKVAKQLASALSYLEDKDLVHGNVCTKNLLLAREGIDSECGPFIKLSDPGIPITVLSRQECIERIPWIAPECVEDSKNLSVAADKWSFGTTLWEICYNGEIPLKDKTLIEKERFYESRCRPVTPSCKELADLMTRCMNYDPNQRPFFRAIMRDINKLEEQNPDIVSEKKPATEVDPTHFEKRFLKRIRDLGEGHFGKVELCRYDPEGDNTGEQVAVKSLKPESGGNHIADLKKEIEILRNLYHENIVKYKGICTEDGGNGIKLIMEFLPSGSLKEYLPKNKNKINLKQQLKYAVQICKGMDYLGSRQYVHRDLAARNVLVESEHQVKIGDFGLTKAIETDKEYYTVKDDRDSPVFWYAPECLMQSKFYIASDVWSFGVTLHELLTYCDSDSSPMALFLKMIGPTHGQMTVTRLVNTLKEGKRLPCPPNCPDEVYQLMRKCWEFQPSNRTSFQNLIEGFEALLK

COc1cc(N)ccc1-n1nc(C)c2cnc(-c3cnn4cccnc34)cc21 [Example 17, 3-methoxy-4-(3-methyl-6-(pyrazolo[1,5-a]pyrimidin-3-yl)-1H-pyrazolo[4,3-c]pyridin-1-yl)aniline] was tested, and the IC50 [1] was > 50.1 nM, the IC50 [2] was 5.01 to 50.1 nM and the IC50 [3] was 5.01 to 50.1 nM. It also gave an IC50 [4] of 5.01 to 50.1 nM.

For CNC(=O)Nc1ccc(-n2nc(C)c3cnc(-c4cnn5cccnc45)cc32)c(OC)c1 [Example 18, 1-(3-methoxy-4-(3-methyl-6-(pyrazolo[1,5-a]pyrimidin-3-yl)-1H-pyrazolo[4,3-c]pyridin-1-yl)phenyl)-3-methylurea], the IC50 [1] was > 50.1 nM, the IC50 [2] was 5.01 to 50.1 nM and the IC50 [3] was 5.01 to 50.1 nM. It also gave an IC50 [4] of 5.01 to 50.1 nM.

With CNC(=O)c1ccc(-n2nc(C)c3cnc(-c4cnn5cccnc45)cc32)c(OC)c1 [Example 19, 3-methoxy-N-methyl-4-(3-methyl-6-(pyrazolo[1,5-a]pyrimidin-3-yl)-1H-pyrazolo[4,3-c]pyridin-1-yl)benzamide] the IC50 [1] was > 50.1 nM, the IC50 [2] was > 50.1 nM and the IC50 [3] was > 50.1 nM. The IC50 [4] was > 50.1 nM.

For COc1cc(C(=O)Nc2ccccc2)ccc1-n1nc(C)c2cnc(-c3cnn4cccnc34)cc21 [Example 20, 3-methoxy-4-(3-methyl-6-(pyrazolo[1,5-a]pyrimidin-3-yl)-1H-pyrazolo[4,3-c]pyridin-1-yl)-N-phenylbenzamide], the IC50 [1] was > 50.1 nM, the IC50 [2] was 5.01 to 50.1 nM and the IC50 [3] was 5.01 to 50.1 nM. The IC50 [4] was 5.01 to 50.1 nM.

COc1cc(NS(C)(=O)=O)ccc1-n1nc(NCCCNC(=O)OC(C)(C)C)c2cnc(-c3cnn4cccnc34)cc21 [Example 21, tert-butyl (3-((1-(2-methoxy-4-(methylsulfonamido)phenyl)-6-(pyrazolo[1,5-a]pyrimidin-3-yl)-1H-pyrazolo[4,3-c]pyridin-3-yl)amino)propyl)carbamate] was tested, and the IC50 [1] was 5.01 to 50.1 nM, the IC50 [2] was ≤ 5.01 nM and the IC50 [3] was ≤ 5.01 nM. For the same compound, the IC50 [4] was ≤ 5.01 nM.

COc1cc(NS(C)(=O)=O)ccc1-n1nc(NCCCN(C)C)c2cnc(-c3cnn4cccnc34)cc21 [Example 22, N-(4-(3-((3-(dimethylamino)propyl)amino)-6-(pyrazolo[1,5-a]pyrimidin-3-yl)-1H-pyrazolo[4,3-c]pyridin-1-yl)-3-methoxyphenyl)methanesulfonamide] was tested, and the IC50 [1] was 5.01 to 50.1 nM, the IC50 [2] was ≤ 5.01 nM and the IC50 [3] was ≤ 5.01 nM. The IC50 [4] was ≤ 5.01 nM.

For CNc1nn(-c2ccc(NS(C)(=O)=O)cc2OC)c2cc(-c3cnn4cccnc34)ncc12 [Example 23, N-(3-methoxy-4-(3-(methylamino)-6-(pyrazolo[1,5-a]pyrimidin-3-yl)-1H-pyrazolo[4,3-c]pyridin-1-yl)phenyl)methanesulfonamide], the IC50 [1] was 5.01 to 50.1 nM, the IC50 [2] was ≤ 5.01 nM and the IC50 [3] was ≤ 5.01 nM. For the same compound, the IC50 [4] was ≤ 5.01 nM.

For COc1cc(NS(C)(=O)=O)ccc1-n1nc(NCCN2CCOCC2)c2cnc(-c3cnn4cccnc34)cc21 [Example 24, N-(3-methoxy-4-(3-((2-morpholinoethyl)amino)-6-(pyrazolo[1,5-a]pyrimidin-3-yl)-1H-pyrazolo[4,3-c]pyridin-1-yl)phenyl)methanesulfonamide], the IC50 [1] was 5.01 to 50.1 nM, the IC50 [2] was ≤ 5.01 nM and the IC50 [3] was ≤ 5.01 nM. For the same compound, the IC50 [4] was ≤ 5.01 nM.

For O=S(=O)(Nc1ccc(-n2nc(NCCN3CCOCC3)c3cnc(-c4cnn5cccnc45)cc32)c(OC(F)F)c1)C1CC1 [Example 25, N-(3-(difluoromethoxy)-4-(3-((2-morpholinoethyl)amino)-6-(pyrazolo[1,5-a]pyrimidin-3-yl)-1H-pyrazolo[4,3-c]pyridin-1-yl)phenyl)cyclopropanesulfonamide], the IC50 [1] was > 50.1 nM, the IC50 [2] was ≤ 5.01 nM and the IC50 [3] was 5.01 to 50.1 nM. The IC50 [4] was 5.01 to 50.1 nM.

COc1cc(NS(C)(=O)=O)ccc1-n1nc(NCCO)c2cnc(-c3cnn4cccnc34)cc21 [Example 26, N-(4-(3-((2-hydroxyethyl)amino)-6-(pyrazolo[1,5-a]pyrimidin-3-yl)-1H-pyrazolo[4,3-c]pyridin-1-yl)-3-methoxyphenyl)methanesulfonamide] was tested, and the IC50 [1] was 5.01 to 50.1 nM, the IC50 [2] was ≤ 5.01 nM and the IC50 [3] was ≤ 5.01 nM. For the same compound, the IC50 [4] was ≤ 5.01 nM.

With COCCN1CCC(CNc2nn(-c3ccc(NS(C)(=O)=O)cc3OC)c3cc(-c4cnn5cccnc45)ncc23)CC1 [Example 27, N-(3-methoxy-4-(3-(((1-(2-methoxyethyl)piperidin-4-yl)methyl)amino)-6-(pyrazolo[1,5-a]pyrimidin-3-yl)-1H-pyrazolo[4,3-c]pyridin-1-yl)phenyl)methanesulfonamide] the IC50 [1] was 5.01 to 50.1 nM, the IC50 [2] was ≤ 5.01 nM and the IC50 [3] was ≤ 5.01 nM. For the same compound, the IC50 [4] was ≤ 5.01 nM.

For COc1cc(NS(=O)(=O)C2CC2)cnc1-n1nc(NCCN(C)C)c2cnc(-c3cnn4cccnc34)cc21 [Example 29, N-(6-(3-((2-(dimethylamino)ethyl)amino)-6-(pyrazolo[1,5-a]pyrimidin-3-yl)-1H-pyrazolo[4,3-c]pyridin-1-yl)-5-methoxypyridin-3-yl)cyclopropanesulfonamide], the IC50 [1] was > 50.1 nM, the IC50 [2] was 5.01 to 50.1 nM and the IC50 [3] was 5.01 to 50.1 nM. The IC50 [4] was 5.01 to 50.1 nM.

In the case of COc1cc(NS(C)(=O)=O)ccc1-n1nc(NCCN2C3CCC2COC3)c2cnc(-c3cnn4cccnc34)cc21 [Example 30, N-(4-(3-((2-(3-oxa-8-azabicyclo[3.2.1]octan-8-yl)ethyl)amino)-6-(pyrazolo[1,5-a]pyrimidin-3-yl)-1H-pyrazolo[4,3-c]pyridin-1-yl)-3-methoxyphenyl)methanesulfonamide], the IC50 [1] was 5.01 to 50.1 nM, the IC50 [2] was ≤ 5.01 nM and the IC50 [3] was ≤ 5.01 nM. The IC50 [4] was ≤ 5.01 nM.

COc1cc(NS(C)(=O)=O)ccc1-n1nc(NCCN(C)C)c2cnc(-c3cnn4cccnc34)cc21 [Example 31, N-(4-(3-((2-(dimethylamino)ethyl)amino)-6-(pyrazolo[1,5-a]pyrimidin-3-yl)-1H-pyrazolo[4,3-c]pyridin-1-yl)-3-methoxyphenyl)methanesulfonamide] was tested, and the IC50 [1] was 5.01 to 50.1 nM, the IC50 [2] was ≤ 5.01 nM and the IC50 [3] was ≤ 5.01 nM. For the same compound, the IC50 [4] was ≤ 5.01 nM.

In the case of COc1cc(NS(=O)(=O)C2CC2)ccc1-n1nc(NCCN(C)C)c2cnc(-c3cnn4cccnc34)cc21 [Example 32, N-(4-(3-((2-(dimethylamino)ethyl)amino)-6-(pyrazolo[1,5-a]pyrimidin-3-yl)-1H-pyrazolo[4,3-c]pyridin-1-yl)-3-methoxyphenyl)cyclopropanesulfonamide], the IC50 [1] was 5.01 to 50.1 nM, the IC50 [2] was 5.01 to 50.1 nM and the IC50 [3] was ≤ 5.01 nM. It also gave an IC50 [4] of 5.01 to 50.1 nM.

In the case of COc1cc(NS(=O)(=O)C2CC2)ccc1-n1nc(NCCCN2CCOCC2)c2cnc(-c3cnn4cccnc34)cc21 [Example 33, N-(3-methoxy-4-(3-((3-morpholinopropyl)amino)-6-(pyrazolo[1,5-a]pyrimidin-3-yl)-1H-pyrazolo[4,3-c]pyridin-1-yl)phenyl)cyclopropanesulfonamide], the IC50 [1] was 5.01 to 50.1 nM, the IC50 [2] was 5.01 to 50.1 nM and the IC50 [3] was 5.01 to 50.1 nM. The IC50 [4] was 5.01 to 50.1 nM.

Compound COc1cc(NS(=O)(=O)C2CC2)ccc1-n1nc(NCCN2CCOCC2)c2cnc(-c3cnn4cccnc34)cc21 [Example 34, N-(3-methoxy-4-(3-((2-morpholinoethyl)amino)-6-(pyrazolo[1,5-a]pyrimidin-3-yl)-1H-pyrazolo[4,3-c]pyridin-1-yl)phenyl)cyclopropanesulfonamide] has an IC50 [1] of 5.01 to 50.1 nM, an IC50 [2] of 5.01 to 50.1 nM and an IC50 [3] of 5.01 to 50.1 nM. The IC50 [4] was ≤ 5.01 nM.

With CNc1nn(-c2ccc(NS(=O)(=O)C3CC3)cc2OC)c2cc(-c3cnn4cccnc34)ncc12 [Example 35, N-(3-methoxy-4-(3-(methylamino)-6-(pyrazolo[1,5-a]pyrimidin-3-yl)-1H-pyrazolo[4,3-c]pyridin-1-yl)phenyl)cyclopropanesulfonamide] the IC50 [1] was 5.01 to 50.1 nM, the IC50 [2] was 5.01 to 50.1 nM and the IC50 [3] was ≤ 5.01 nM. The IC50 [4] was ≤ 5.01 nM.
